Experimental data: patent US5668170A, “Composition and method enhancing transdermal electrotransport agent delivery” (ALZA Corporation, priority 1996, dated 1997)
Where “and” joins values, the source holds several entries; their conditions need not be identical. Equal values may be shown once. Where a name gives a salt, the structure may show the parent alone. Read-outs that look alike come from different tables or passages of the source. One block for each compound: values may come before it.

Key:
[1] = hydrophile-lipophile balance of the enhancer; cited from earlier work
[2] = for effect on metoclopramide mass flux (in words) / effect on skin resistance / resistivity (in words): compared with control without enhancer; for Normalized Cell Voltage (after 5 hrs) / Normalized Metoclopramide Mass Flux (after 5 hrs): metoclopramide HCl 100 mg/ml, 100 μA/cm^2, 32° C.; for enhancer performance (in words): metoclopramide electrotransport
[3] = Electrotransport of sodium ketoprofen with enhancer (Example 5); assay type: in vitro ADME, human; details: for effect of 20% ethanol solvent on enhancer performance (in words) / effect on ketoprofen mass flux (in words) / effect on skin conductivity (in words): 100 mM ketoprofen; for effect of 20% ethanol solvent on enhancer performance (in words): 20 wt % ethanol/water; for effect on ketoprofen mass flux (in words) / effect on skin conductivity (in words): water alone
Experimental: (§1) Each floating epidermis was stretched essentially flat.
Sodium ketoprofen in aqueous solution forms an univalent anionic anti-inflammatory agent. The electrotransport delivery of 100 mM ketoprofen in the presence of cationic and non-ionic surfactants was tested under the conditions described in Example 1. The enhancers used were laurylamine and dimethyl lauramide. Two sets of tests were conducted. The first in aqueous solution, and the second in 20 wt % ethanol/water solution.

[4] = Micelle formation of tetracaine; assay type: physicochemical
Experimental: Tetracaine is a much less electrophilic molecule than metoclopramide since it is positively charged at its tertiary amine group, but the rest of the molecule is very hydrophobic. Concentrations of tetracaine higher than 20 mg/ml (75 mM) lead to the formation of micelles, due to the highly surfactant nature of the drug. Lower concentrations of tetracaine may lead to a better showing of the effect of the enhancer.

[5] = Electrotransport of di-sodium cromolyn with enhancer (Example 4); assay type: in vitro ADME, human; details: concentration not given in b26; for lowering of skin resistivity: cromolyn donor, dodecylpyrrolidone 100 mM; for increase of cromolyn flux: dodecylpyrrolidone 100 mM in donor
Description: as §1
Di-sodium cromolyn, when in aqueous solution, forms a divalent anion. The experimental conditions were as described in Example 1, except the cromolyn donor solution was placed in the cathodic compartment 46 and the Dulbecco's phosphate buffered saline receptor solution was placed in the anodic compartment 44; and the stratum corneum layer of skin disk 42 was mounted to face the cathodic compartment 46.
Dodecylpyrrolidone, when added to the donor solution, at a concentration of 100 mM, increased cromolyn flux by 50 to 100% and lowered skin resistivity by 30 to 70%.

[6] = tetracaine; electrotransport pretreatment with the enhancer
Experimental: Solutions of the drug to be transported through the skin disks 42, and each of the electrotransport enhancers to be tested were placed at different times in the anodic donor compartment 44. Dulbecco's phosphate buffered saline (approximately 0.1 5N NaCl, with minor amounts of other ions, pH 7.0) was placed in the cathodic receptor compartment 46. The skin resistance was calculated from the voltages applied by the galvanostat according to Ohm's law:
The electrotransport of tetracaine was also conducted with surfactant flux enhancers, such as decyl methyl sulfoxide.

[7] = for Normalized Cell Voltage (after 5 hrs): relative to no ethanol (1.00)
Experimental: as §1
The prior art teaches that ethanol can be used to enhance both passive and electrically-assisted transdermal drug delivery. […] The agent utilized, metoclopramide HCl, was placed in the donor compartment at about 100 mg metoclopramide/ml, and Dulbecco's phosphate buffered saline (pH 7) was placed in the receptor compartment. The system was maintained at 32° C. and a constant electric current of 100 μA/cm^2 was applied throughout the procedure.

[8] = relative to control without enhancer (1.00), enhancer 10 mM
[9] = relative to control (1.00), dodecylpyrrolidone 100 mM

Normalized Metoclopramide Mass Flux (after 5 hrs) [2, 8]: 1.87
effect on ketoprofen mass flux (in words) [3]: increased mass flux
effect on ketoprofen flux and conductivity (in words) ([3]; dimethyl lauramide added to ketoprofen, general description): increase in both flux and conductivity
Compound: CCCCCCCCCCCC(=O)N(C)C [Dimethyl lauramide]
HLB No. [1]: 8
effect on metoclopramide mass flux (in words) [2]: almost doubling of the amount of the drug delivered
skin resistance relative to control ([2]; metoclopramide HCl donor, dimethyl lauramide added): about one-half that of the control
Normalized Cell Voltage (after 5 hrs) [2, 8]: .45
Normalized Cell Voltage (after 5 hrs) ([2]; relative to control without enhancer (1.00), enhancer 10 mM, listed as dimethyl lauramide): 0.45
effect of 20% ethanol solvent on enhancer performance (in words) [3]: improved the performance of both enhancers
effect on skin conductivity (in words) [3]: increased mass flux and skin conductivity

Compound: CCCCCCCCCCCCOC(=O)C(C)O (stereo not shown) [Lauryl lactate, reference compound]
HLB No. [1]: 4.7
effect on skin resistance / resistivity (in words) ([2]; metoclopramide HCl donor): reduced skin resistivity
Normalized Cell Voltage (after 5 hrs) [2, 8]: .92

concentration leading to the formation of micelles [4]: higher than 20 mg/ml and > 75 mM
Compound: CCCCNc1ccc(C(=O)OCCN(C)C)cc1 [tetracaine HCl]

Compound: CCCCCCCCCCCCN1CCCC1=O [Dodecyl pyrrolidone]
HLB No. [1]: 8
enhancer performance (in words) ([2]; listed as dodecyl pyrrolidone): superior characteristics
enhancer performance (in words) ([2]; listed as dodecylpyrrolidone): very effective enhancers
Normalized Cell Voltage (after 5 hrs) [2, 9]: .35
Normalized Metoclopramide Mass Flux (after 5 hrs) [2, 9]: 1.68
lowering of skin resistivity ([5]; listed as Dodecylpyrrolidone): 30 to 70%
lowering of skin resistivity ([5]; listed as dodecyl pyrrolidone): more than 30%
increase of cromolyn flux ([5]; listed as Dodecylpyrrolidone): 50 to 100%
increase of cromolyn flux ([5]; listed as dodecyl pyrrolidone): more than 50%

Compound: Sorbitan monolaurate [reference compound]
HLB No. [1]: 8.6
effect on skin resistance / resistivity (in words) ([2]; metoclopramide HCl donor): fail to have a significant effect
Normalized Cell Voltage (after 5 hrs) [2, 8]: .98

Compound: CCCCCCCCCC[S+](C)[O-] (stereo not shown) [n-Decyl methyl sulfoxide]
HLB No. [1]: 32
Normalized Cell Voltage (after 5 hrs) [2, 8]: .44
decrease of cell voltage (in words) [6]: highly beneficial

Compound: CCCCCCCCCCCCOS(=O)(=O)[O-].[Na+] [Sodium lauryl sulfate]
HLB No. [1]: 40
effect on metoclopramide mass flux (in words) [2]: enhanced mass flux
enhancer performance (in words) [2]: superior characteristics
Normalized Cell Voltage (after 5 hrs) [2, 8]: .76
Normalized Metoclopramide Mass Flux (after 5 hrs) [2, 8]: 1.64

Compound: lauramphocarboxy propionate [Lauramphocarboxypropionate, reference compound]
HLB No. [1]: 54
effect on skin resistance / resistivity (in words) ([2]; metoclopramide HCl donor): did not appear to affect
Normalized Cell Voltage (after 5 hrs) [2, 8]: .93

Compound: CCO [Ethanol, ethanol]
effect on mass flux of metoclopramide (in words) [7]: decreased the mass flux of metoclopramide
effect on skin conductivity (in words) ([7]; 10 to 30 wt % ethanol): decreased the mass flux of metoclopramide and the skin conductivity
Normalized Cell Voltage (after 5 hrs) ([7]; ethanol 10 wt %): 0.82
Normalized Cell Voltage (after 5 hrs) ([7]; ethanol 20 wt %): 0.70
Normalized Cell Voltage (after 5 hrs) ([7]; ethanol 30 wt %): 0.78

Compound: CCCCCCCCCCCCN [Lauryl amine]
HLB No. [1]: 11
effect on metoclopramide mass flux (in words) [2]: significantly decreased the flux
Normalized Cell Voltage (after 5 hrs) [2, 8]: .22
Normalized Metoclopramide Mass Flux (after 5 hrs) [2, 8]: 0.136
effect of 20% ethanol solvent on enhancer performance (in words) [3]: improved the performance of both enhancers
effect on ketoprofen mass flux (in words) [3]: increased mass flux
effect on skin conductivity (in words) [3]: increased mass flux and skin conductivity
